From ChEMBL document CHEMBL3797164, “Transfer of SAR information from hypotensive indazole to indole derivatives acting at α-adrenergic receptors: In vitro and in vivo studies” (Eur J Med Chem, 2016)

Legend:
Rattus norvegicus [1] = assay: Antihypertensive activity in anesthetized Wistar rat assessed as change in mean arterial blood pressure at 0.1 mg/kg, iv administered as bolus dose after 30 mins (reference value: -1.3 mmHg); assay type: functional
[2] = molecular target: T1, Adrenergic receptor alpha-2 (Rattus norvegicus, UniProt P22086+P19328+P22909); assay: Displacement of [3H]RX821002 from Alpha-2 adrenergic receptor in Sprague-Dawley rat brain P2 membranes after […] by liquid scintillation counting
T1 sequence (P22086 whole entry): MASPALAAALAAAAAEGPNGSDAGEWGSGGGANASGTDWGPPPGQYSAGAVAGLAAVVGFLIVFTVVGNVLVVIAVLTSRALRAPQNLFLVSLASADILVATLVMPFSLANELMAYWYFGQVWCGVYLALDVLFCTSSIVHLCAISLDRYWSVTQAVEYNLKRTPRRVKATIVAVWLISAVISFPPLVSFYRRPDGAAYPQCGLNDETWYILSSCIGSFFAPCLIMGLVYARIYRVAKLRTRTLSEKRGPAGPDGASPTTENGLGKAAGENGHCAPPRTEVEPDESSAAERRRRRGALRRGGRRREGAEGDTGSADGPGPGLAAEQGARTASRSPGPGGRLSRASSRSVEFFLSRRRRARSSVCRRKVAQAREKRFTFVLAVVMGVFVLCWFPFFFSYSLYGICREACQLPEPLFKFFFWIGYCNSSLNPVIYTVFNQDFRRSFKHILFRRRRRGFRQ
T1 sequence (P19328 whole entry): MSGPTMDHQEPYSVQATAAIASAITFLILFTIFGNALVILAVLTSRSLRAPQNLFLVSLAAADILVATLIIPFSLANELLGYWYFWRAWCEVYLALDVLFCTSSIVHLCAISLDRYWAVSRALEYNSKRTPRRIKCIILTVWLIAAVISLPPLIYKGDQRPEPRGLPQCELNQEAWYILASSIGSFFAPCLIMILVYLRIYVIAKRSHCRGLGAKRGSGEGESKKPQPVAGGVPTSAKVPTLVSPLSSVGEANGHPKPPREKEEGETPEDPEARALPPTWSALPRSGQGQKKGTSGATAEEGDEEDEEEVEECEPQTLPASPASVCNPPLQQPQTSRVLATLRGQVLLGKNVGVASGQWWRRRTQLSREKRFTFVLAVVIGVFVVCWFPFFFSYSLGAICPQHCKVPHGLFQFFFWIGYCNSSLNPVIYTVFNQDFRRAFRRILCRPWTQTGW
T1 sequence (P22909 whole entry): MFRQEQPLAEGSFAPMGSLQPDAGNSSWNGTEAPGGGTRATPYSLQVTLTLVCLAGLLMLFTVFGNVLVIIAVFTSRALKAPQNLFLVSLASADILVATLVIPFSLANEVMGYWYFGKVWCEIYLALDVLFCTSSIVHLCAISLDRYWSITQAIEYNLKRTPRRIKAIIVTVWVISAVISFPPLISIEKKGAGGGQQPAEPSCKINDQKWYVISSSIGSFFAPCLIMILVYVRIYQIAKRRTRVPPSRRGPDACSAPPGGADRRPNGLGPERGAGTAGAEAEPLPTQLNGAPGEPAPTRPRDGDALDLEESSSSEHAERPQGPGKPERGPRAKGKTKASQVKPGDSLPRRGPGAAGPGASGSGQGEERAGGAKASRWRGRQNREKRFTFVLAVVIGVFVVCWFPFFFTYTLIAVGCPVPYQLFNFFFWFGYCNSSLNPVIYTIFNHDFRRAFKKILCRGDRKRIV

Nischarin = Nischarin (Rattus norvegicus, UniProt Q4G017); assay: Displacement of [3H]clonidine from Imidazoline receptor 1 in Sprague-Dawley rat kidney P2 membranes after […] by liquid scintillation counting
Rattus norvegicus [3] = assay: Antihypertensive activity in anesthetized Wistar rat assessed as change in heart rate at 0.1 mg/kg, iv administered as bolus dose after 2 mins (reference value: -0.6 […]); assay type: functional
Rattus norvegicus [4] = assay: Antihypertensive activity in anesthetized Wistar rat assessed as change in heart rate at 0.1 mg/kg, iv administered as bolus dose after 5 mins (reference value: -2.9 […]); assay type: functional
Rattus norvegicus [5] = assay: Antihypertensive activity in anesthetized Wistar rat assessed as change in heart rate at 0.1 mg/kg, iv administered as bolus dose after 60 mins (reference value: -6.2 […]); assay type: functional

Nischarin, sequence (Q4G017 whole entry): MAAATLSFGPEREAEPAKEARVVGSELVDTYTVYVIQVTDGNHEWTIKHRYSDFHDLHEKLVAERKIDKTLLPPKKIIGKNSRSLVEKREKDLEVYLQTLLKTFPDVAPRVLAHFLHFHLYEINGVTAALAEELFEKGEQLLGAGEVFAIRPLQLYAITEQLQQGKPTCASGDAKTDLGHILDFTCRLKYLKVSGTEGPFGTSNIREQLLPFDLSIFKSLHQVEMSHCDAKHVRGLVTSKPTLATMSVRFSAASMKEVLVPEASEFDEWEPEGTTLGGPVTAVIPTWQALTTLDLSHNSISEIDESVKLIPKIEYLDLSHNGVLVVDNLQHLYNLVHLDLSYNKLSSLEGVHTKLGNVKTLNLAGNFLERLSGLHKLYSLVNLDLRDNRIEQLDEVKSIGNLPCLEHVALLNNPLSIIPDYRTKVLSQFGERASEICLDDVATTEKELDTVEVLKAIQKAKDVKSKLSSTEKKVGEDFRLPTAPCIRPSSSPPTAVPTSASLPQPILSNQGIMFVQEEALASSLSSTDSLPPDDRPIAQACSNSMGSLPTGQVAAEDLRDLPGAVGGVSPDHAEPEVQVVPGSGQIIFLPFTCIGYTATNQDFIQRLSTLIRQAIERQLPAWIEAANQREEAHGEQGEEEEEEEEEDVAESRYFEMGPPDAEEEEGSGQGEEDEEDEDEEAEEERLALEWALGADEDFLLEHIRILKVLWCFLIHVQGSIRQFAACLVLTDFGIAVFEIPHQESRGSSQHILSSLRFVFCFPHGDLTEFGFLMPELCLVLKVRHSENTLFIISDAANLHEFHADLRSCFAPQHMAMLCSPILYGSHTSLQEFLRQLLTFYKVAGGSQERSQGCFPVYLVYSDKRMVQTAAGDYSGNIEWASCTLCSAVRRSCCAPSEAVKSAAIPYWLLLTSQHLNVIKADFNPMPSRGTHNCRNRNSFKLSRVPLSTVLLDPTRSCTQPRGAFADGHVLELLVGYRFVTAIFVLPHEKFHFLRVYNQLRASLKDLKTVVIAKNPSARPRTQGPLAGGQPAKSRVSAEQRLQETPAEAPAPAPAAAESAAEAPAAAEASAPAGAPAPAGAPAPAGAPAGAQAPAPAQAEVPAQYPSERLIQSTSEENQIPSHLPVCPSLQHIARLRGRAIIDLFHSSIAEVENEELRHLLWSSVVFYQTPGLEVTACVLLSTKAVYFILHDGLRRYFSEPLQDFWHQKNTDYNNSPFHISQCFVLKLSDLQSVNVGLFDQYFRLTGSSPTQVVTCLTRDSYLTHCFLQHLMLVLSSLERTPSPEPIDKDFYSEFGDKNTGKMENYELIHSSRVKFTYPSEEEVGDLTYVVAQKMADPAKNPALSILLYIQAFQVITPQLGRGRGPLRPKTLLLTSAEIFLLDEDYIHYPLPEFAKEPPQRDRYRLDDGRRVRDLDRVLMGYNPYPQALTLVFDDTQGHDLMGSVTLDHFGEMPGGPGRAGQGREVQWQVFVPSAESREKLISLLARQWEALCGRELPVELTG

Row | Compound | Activity (Rattus norvegicus [1]) | Ki [2] | Ki (Nischarin) | Activity (Rattus norvegicus [3]) | Activity (Rattus norvegicus [4]) | Activity (Rattus norvegicus [5])
1 | Cl.Clc1cccc2ccn(CC3=NCCN3)c12 | -56.1 mmHg | 6.34 nM | 10300 nM | -89.6 bpm | -132 bpm | -129.4 bpm
2 | Cl.c1ccc2c(c1)ccn2CC1=NCCN1 | -27.9 mmHg | 33.5 nM | 81400 nM | -138.4 bpm | -100.1 bpm | -75.1 bpm
3 | Br.Cc1cccc2ccn(CC3=NCCN3)c12 | -46.5 mmHg | 16.63 nM | 1000 nM | -61.3 bpm | -83.3 bpm | -87.7 bpm
